Assay [1] concerns the target T1, ER-α (Homo sapiens, UniProt P03372).
T1 construct: endogenous in cells; host or cells: MCF-7
T1 sequence (P03372 1-595): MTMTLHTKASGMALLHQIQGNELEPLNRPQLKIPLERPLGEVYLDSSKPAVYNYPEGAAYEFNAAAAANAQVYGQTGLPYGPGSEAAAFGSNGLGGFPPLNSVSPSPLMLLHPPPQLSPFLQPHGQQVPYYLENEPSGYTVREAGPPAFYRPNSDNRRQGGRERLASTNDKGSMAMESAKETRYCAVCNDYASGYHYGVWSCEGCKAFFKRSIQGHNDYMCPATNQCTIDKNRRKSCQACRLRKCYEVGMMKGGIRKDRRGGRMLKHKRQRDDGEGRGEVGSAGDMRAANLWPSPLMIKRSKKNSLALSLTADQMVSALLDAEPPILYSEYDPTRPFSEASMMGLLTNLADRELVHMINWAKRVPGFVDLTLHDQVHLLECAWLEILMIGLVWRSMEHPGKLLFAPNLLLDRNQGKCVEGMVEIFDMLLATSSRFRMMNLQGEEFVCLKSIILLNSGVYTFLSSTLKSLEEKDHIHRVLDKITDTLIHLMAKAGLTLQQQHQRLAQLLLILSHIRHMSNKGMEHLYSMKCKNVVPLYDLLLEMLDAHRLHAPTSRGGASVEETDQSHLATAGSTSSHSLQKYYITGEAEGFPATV
In words: ER-α in Cell Western Assay (SP1). In kind it is cell-based. The note with it: MCF-7 cells, SP1 rabbit monoclonal Ab, 4 or 24 hr post compound addition, read-out: ER In-Cell Western Assay (SP1); for Emax: MCF7, Max Response; for DC50: IC50. The procedure:
MCF-7 cells were adjusted to a concentration of 200,000 cells per mL in RPMI containing 10% charcoal-stripped FBS and 20 mM HEPES. 16 microliters of the cell suspension (3200 cells) was added to each well of a poly-D-lysine 384 well plate, and the cells were incubated overnight to allow the cells to adhere. The following day an eleven point, serial semilog dilution of each compound was added to the cells in 16 μL at a final concentration ranging from 0.3-0.000003 μM. At 4 or 24 hr post compound addition, the cells were fixed (10% formalin in PBS) for 20 minutes. Cells were permeabalized in PBS 0.1% Triton and blocked with LICOR blocking buffer (50 μl/well, 90′). The wells were then incubated overnight at 4° C. with SP1 rabbit monoclonal Ab (Thermo Scientific) diluted 1:1000 in LICOR blocking buffer/0.1% Tween-20. Wells which were treated with blocking buffer with Tween but no antibody were used as a background control. Wells were washed with 0.1% Tween-20/PBS and then incubated in goat anti-rabbit IRDye™ 800CW (LICOR Inc.; 1:1000) and DRAQ5 DNA dye (1:2000 for 2 mM stock) diluted in LICOR blocking buffer containing 0.1% Tween-20 and 0.01% SDS for 60 minutes. Cells were washed (50 μl/well, 5′ each) in 0.1% Tween-20/PBS. Plates were scanned on a LICOR Odyssey infrared imaging system. Integrated intensities in the 800 nm channel and 700 nm channel were measured to determine levels of ER and DNA respectively. Percent ER levels were determined as follows: (Integrated intensity 800 nm sample/integrated intensity 700 nm sample)/(Integrated intensity 800 nm untreated cells/integrated intensity 700 nm untreated cells)×100=% ER levels.

Assay [2] has as its system MCF-7 cells. The experiment in a line: Breast Cancer Cell Viability Assay (MCF7 Viability Assay). The note with it: 5 days' compound exposure, CellTiter-Glo; for pIC50: Homo sapiens, MCF7, 120 h. The format is cell-based. The procedure:
MCF-7 cells were adjusted to a concentration of 20,000 cells per mL in RPMI containing 10% FBS and 20 mM HEPES. 16 microliters of the cell suspension (320 cells) was added to each well of a 384 well plate, and the cells were incubated overnight to allow the cells to adhere. The following day an eleven point, serial semilog dilution of each compound was added to the cells in 16 μL at a final concentration ranging from 0.3-0.000003 μM. After 5 days' compound exposure, 16 μL of CellTiter-GLo (Promega, Madison Wis.) was added to the cells the relative luminescence units (RLUs) of each well was determined. CellTiter-Glo added to 32 μL of medium without cells was used to obtain a background value. The Percent viability of each sample was determined as follows: (RLU sample-RLU background/RLU untreated cells-RLU background)×100=% viability.
A general note: Cellular ATP, detected with luciferase, serves as a proxy for viable cell number.

pIC50: −log10 of the molar value.

In general, pIC50 refers to the negative decadic logarithm of the IC50, by convention in mol/L. A lower pIC50 goes with a large IC50. Regarding `CC1=C(c2ccc(O)c(C(F)(F)F)c2)C(c2ccc(OC[C@H](C)N3CC[C@@H](C)C3)cc2)Oc2ccc(O)cc21` (stereo partly drawn) [Example 69, 3-(4-Hydroxy-3-(trifluoromethyl)phenyl)-4-methyl-2-(4-((S)-2-((R)-3-methylpyrrolidin-1-yl)propoxy)phenyl)-2H-chromen-6-ol], in assay [1], the Emax is 60 to 85% and the DC50 is ≤ 1 nM. Further, in assay [2], the “MCF7 Viability Assay Max Response” value is reported as “++ (++ = a single % value ≧50%)” and the pIC50 is < 9.00.
Consider `CC1=C(c2ccc(O)cc2C)C(c2ccc(OC[C@H](C)N3CC[C@@H](C)C3)cc2)Oc2ccc(O)cc21` (stereo partly drawn) [Example 41, 3-(4-Hydroxy-2-methylphenyl)-4-methyl-2-(4-((S)-2-((R)-3-methylpyrrolidin-1-yl)propoxy)phenyl)-2H-chromen-6-ol], for which, in assay [1], the Emax was in the range of 60 to 85% and the DC50 was ≤ 1 nM. In addition, in assay [2], the “MCF7 Viability Assay Max Response” value is reported as “++ (++ = a single % value ≧50%)” and the negative-log IC50 (pIC50) was ≥ 9.00.
In the same order, the values of `CC1=C(c2ccc(F)cc2)C(c2ccc(OC[C@H](C)N3CC4CC4C3)cc2)Oc2ccc(O)cc21` (stereo partly drawn) [Example 71, 2-(4-((2S)-2-(3-Azabicyclo[3.1.0]hexan-3-yl)propoxy)phenyl)-3-(4-fluorophenyl)-4-methyl-2H-chromen-6-ol] are 60 to 85%, ≤ 1 nM, “++ (++ = a single % value ≧50%)” and < 9.00.
For `CC1=C(c2cc(F)c(O)c(F)c2)C(c2ccc(OC[C@H](C)N3CC[C@@H](C)C3)cc2)Oc2ccc(O)cc21` (stereo partly drawn) [Example 47, 3-(3,5-Difluoro-4-hydroxyphenyl)-4-methyl-2-(4-((S)-2-((R)-3-methylpyrrolidin-1-yl)propoxy)phenyl)-2H-chromen-6-ol], in that order: ≥ 85%, ≤ 1 nM, “++ (++ = a single % value ≧50%)” and ≥ 9.00.
For `CC1=C(c2cccc(O)c2F)C(c2ccc(OC[C@H](C)N3CC[C@@H](C)C3)cc2)Oc2ccc(O)cc21` (stereo partly drawn) [Example 60, 3-(2-Fluoro-3-hydroxyphenyl)-4-methyl-2-(4-((S)-2-((R)-3-methylpyrrolidin-1-yl)propoxy)phenyl)-2H-chromen-6-ol], in that order: ≥ 85%, ≤ 1 nM, “++ (++ = a single % value ≧50%)” and ≥ 9.00.
Take `CC1=C(c2ccc(F)cc2)C(c2ccc(OC[C@H](C)N3CCC[C@H]3C)cc2)Oc2ccc(O)cc21` (stereo partly drawn) [Example 63, 3-(4-Fluorophenyl)-4-methyl-2-(4-((S)-2-((R)-2-methylpyrrolidin-1-yl)propoxy)phenyl)-2H-chromen-6-ol]: in assay [1], the Emax was in the range of 60 to 85% and the DC50 was ≤ 1 nM. Moreover, in assay [2], the “MCF7 Viability Assay Max Response” value is reported as “++ (++ = a single % value ≧50%)” and the pIC50 is ≥ 9.00.
Turning to `CC1=C(c2ccc(F)c(O)c2F)C(c2ccc(OC[C@H](C)N3CC[C@@H](C)C3)cc2)Oc2ccc(O)cc21` (stereo partly drawn) [Example 48, 3-(2,4-Difluoro-3-hydroxyphenyl)-4-methyl-2-(4-((S)-2-((R)-3-methylpyrrolidin-1-yl)propoxy)phenyl)-2H-chromen-6-ol], in assay [1], the Emax was ≥ 85% and the DC50 is ≤ 1 nM. Moreover, in assay [2], the “MCF7 Viability Assay Max Response” value is reported as “++ (++ = a single % value ≧50%)” and the negative logarithm of the IC50 (pIC50) was < 9.00.
For `CC1=C(c2ccc(F)c(F)c2)C(c2ccc(OC[C@H](C)N3CC[C@@H](C)C3)cc2)Oc2ccc(O)cc21` (stereo partly drawn) [Example 46, 3-(3,4-Difluorophenyl)-4-methyl-2-(4-((S)-2-((R)-3-methylpyrrolidin-1-yl)propoxy)phenyl)-2H-chromen-6-ol], in that order: 60 to 85%, > 1 nM, “++ (++ = a single % value ≧50%)” and < 9.00.
`CC1=C(c2ccc(Cl)cc2)C(c2ccc(OC[C@H](C)N3CC[C@@H](C)C3)cc2)Oc2ccc(O)cc21` (stereo partly drawn) [Example 44, 3-(4-Chlorophenyl)-4-methyl-2-(4-((S)-2-((R)-3-methylpyrrolidin-1-yl)propoxy)phenyl)-2H-chromen-6-ol]: in assay [1], the Emax lay within 60 to 85% and the DC50 was > 1 nM. For the same compound, in assay [2], the “MCF7 Viability Assay Max Response” value was “++ (++ = a single % value ≧50%)” and the pIC50 was < 9.00.
`CC1=C(c2cccc(O)c2C)C(c2ccc(OC[C@H](C)N3CC[C@@H](C)C3)cc2)Oc2ccc(O)cc21` (stereo partly drawn) [Example 40, 3-(3-Hydroxy-2-methylphenyl)-4-methyl-2-(4-((S)-2-((R)-3-methylpyrrolidin-1-yl)propoxy)phenyl)-2H-chromen-6-ol]: in assay [1], the Emax lay within 60 to 85% and the DC50 is ≤ 1 nM. Also, in assay [2], the “MCF7 Viability Assay Max Response” value was “++ (++ = a single % value ≧50%)” and the negative-log IC50 (pIC50) is ≥ 9.00.
For `CC1=C(c2cc(O)ccc2F)C(c2ccc(OC[C@H](C)N3CC[C@@H](C)C3)cc2)Oc2ccc(O)cc21` (stereo partly drawn) [Example 62, 3-(2-Fluoro-5-hydroxyphenyl)-4-methyl-2-(4-((S)-2-((R)-3-methylpyrrolidin-1-yl)propoxy)phenyl)-2H-chromen-6-ol], in that order: ≥ 85%, ≤ 1 nM, “++ (++ = a single % value ≧50%)” and ≥ 9.00.
For `CC1=C(c2ccc(C(F)(F)F)c(O)c2)C(c2ccc(OC[C@H](C)N3CC[C@@H](C)C3)cc2)Oc2ccc(O)cc21` (stereo partly drawn) [Example 68, 3-(3-Hydroxy-4-(trifluoromethyl)phenyl)-4-methyl-2-(4-((S)-2-((R)-3-methylpyrrolidin-1-yl)propoxy)phenyl)-2H-chromen-6-ol], in assay [1], the Emax is 60 to 85% and the DC50 is > 1 nM. In addition, in assay [2], the “MCF7 Viability Assay Max Response” value was “++ (++ = a single % value ≧50%)” and the pIC50 was < 9.00.
For the compound `CC1=C(c2cc(O)cc(F)c2)C(c2ccc(OC[C@H](C)N3CC[C@@H](C)C3)cc2)Oc2ccc(O)cc21` (stereo partly drawn) [Example 43, 3-(3-Fluoro-5-hydroxyphenyl)-4-methyl-2-(4-((S)-2-((R)-3-methylpyrrolidin-1-yl)propoxy)phenyl)-2H-chromen-6-ol], in assay [1], the Emax is ≥ 85% and the DC50 was ≤ 1 nM. For the same compound, in assay [2], the “MCF7 Viability Assay Max Response” value is recorded as “++ (++ = a single % value ≧50%)” and the pIC50 is ≥ 9.00.
In the same order, the values of `CC1=C(c2ccc(O)cc2F)C(c2ccc(OC[C@H](C)N3CC[C@@H](C)C3)cc2)Oc2ccc(O)cc21` (stereo partly drawn) [Example 45, 3-(2-Fluoro-4-hydroxyphenyl)-4-methyl-2-(4-((S)-2-((R)-3-methylpyrrolidin-1-yl)propoxy)phenyl)-2H-chromen-6-ol] are ≥ 85%, ≤ 1 nM, “++ (++ = a single % value ≧50%)” and ≥ 9.00.

These data come from US9078871B2, “Estrogen receptor modulators and uses thereof” (SERAGON PHARMACEUTICALS, INC., priority 2010, dated 2015).
